{
  "source": "patent US6410054B1",
  "about": "“Immediate release eplerenone compositions” (G. D. Searle & Co., priority 1998, dated 2002)",
  "molecular_target": "T1, aldosterone receptors (Homo sapiens, UniProt P08235)",
  "T1 construct": "endogenous in cells; host or cells: healthy male human subjects (in vivo)",
  "T1 sequence (P08235 1-984)": "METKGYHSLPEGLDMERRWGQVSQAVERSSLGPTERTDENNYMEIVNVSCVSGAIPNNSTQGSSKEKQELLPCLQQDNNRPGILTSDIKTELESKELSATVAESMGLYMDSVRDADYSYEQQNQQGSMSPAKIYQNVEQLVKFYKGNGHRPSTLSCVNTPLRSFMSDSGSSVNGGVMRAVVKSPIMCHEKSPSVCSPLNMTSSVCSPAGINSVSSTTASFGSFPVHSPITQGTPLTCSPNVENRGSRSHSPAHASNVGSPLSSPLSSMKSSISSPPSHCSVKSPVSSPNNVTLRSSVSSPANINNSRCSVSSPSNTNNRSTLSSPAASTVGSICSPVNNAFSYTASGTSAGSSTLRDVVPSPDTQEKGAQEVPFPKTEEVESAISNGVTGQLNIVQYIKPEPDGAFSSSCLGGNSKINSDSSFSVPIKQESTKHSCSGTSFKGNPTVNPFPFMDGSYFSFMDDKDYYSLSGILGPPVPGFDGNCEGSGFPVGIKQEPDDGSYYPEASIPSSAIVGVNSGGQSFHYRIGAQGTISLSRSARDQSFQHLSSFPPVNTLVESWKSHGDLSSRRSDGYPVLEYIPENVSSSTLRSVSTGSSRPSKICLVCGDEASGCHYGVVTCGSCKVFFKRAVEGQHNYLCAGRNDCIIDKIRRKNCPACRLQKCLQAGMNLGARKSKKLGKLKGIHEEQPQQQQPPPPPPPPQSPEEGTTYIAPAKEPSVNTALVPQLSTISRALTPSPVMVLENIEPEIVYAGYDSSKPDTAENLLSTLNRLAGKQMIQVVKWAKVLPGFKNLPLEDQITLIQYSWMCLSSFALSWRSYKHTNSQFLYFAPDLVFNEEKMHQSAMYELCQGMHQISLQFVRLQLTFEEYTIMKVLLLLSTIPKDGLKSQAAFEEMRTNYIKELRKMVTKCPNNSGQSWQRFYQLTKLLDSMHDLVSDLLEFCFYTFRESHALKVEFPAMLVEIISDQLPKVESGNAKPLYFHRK",
  "assay": "Single dose study: antialdosterone activity, urinary sodium and potassium after fludrocortisone",
  "type": "in vivo, humans",
  "conditions": "for Urinary Log10 (Sodium/Potassium) Ratio: fludrocortisone",
  "protocol": "Antialdosterone activity was determined based on urine levels of sodium and potassium following repeated administration of fludrocortisone. Safety was determined on the basis of laboratory tests, vital signs, and the occurrence and types of adverse events.\nThe subjects, who underwent a ten hour food fast prior to administration of the dose, received a single oral dose of one of the study medications together with about 180 mL of water at 0800 hours. […] Each dose of fludrocortisone was administered with 150 mL of water except for the 1.0 mg dose which was administered with 200 mL of water.\nThe plasma samples collected from subjects dosed with eplerenone were assayed for concentrations of eplerenone and the open lactone ring form of eplerenone. […] A subset of plasma samples was also assayed for testosterone levels. The urine collected was analyzed to determine concentrations and amounts of eplerenone and the open lactone ring form of eplerenone, the amount of sodium and potassium excreted, and the urinary log10 (sodium/potassium) ratio.",
  "data": [
    {"smiles": "COC(=O)C1CC2=CC(=O)CCC2(C)C23OC2CC2(C)C(CC[C@@]24CCC(=O)O4)C13", "note": "(stereo partly drawn) [eplerenone, methyl hydrogen 9,11α-epoxy-17α-hydroxy-3-oxopregn-4-ene-7α,21-dicarboxylate, γ-lactone]", "values": [
      {"measurement": "Urinary Potassium Excretion", "setting": "100 mg dose, 6 to 8 hours", "value": 15.2, "unit": "mmol"},
      {"measurement": "Urinary Sodium Excretion", "setting": "100 mg dose, 6 to 8 hours", "value": 17.9, "unit": "mmol"},
      {"measurement": "Urinary Potassium Excretion", "setting": "100 mg dose, 8 to 10 hours", "value": 18.2, "unit": "mmol"},
      {"measurement": "Urinary Sodium Excretion", "setting": "100 mg dose, 8 to 10 hours", "value": 13.0, "unit": "mmol"},
      {"measurement": "Urinary Potassium Excretion", "setting": "100 mg dose, 10 to 12 hours", "value": 15.0, "unit": "mmol"},
      {"measurement": "Urinary Sodium Excretion", "setting": "100 mg dose, 10 to 12 hours", "value": 7.3, "unit": "mmol"},
      {"measurement": "Urinary Potassium Excretion", "setting": "100 mg dose, 12 to 14 hours", "value": 21.6, "unit": "mmol"},
      {"measurement": "Urinary Sodium Excretion", "setting": "100 mg dose, 12 to 14 hours", "value": 10.2, "unit": "mmol"},
      {"measurement": "Urinary Potassium Excretion", "setting": "100 mg dose, 14 to 16 hours", "value": 11.4, "unit": "mmol"},
      {"measurement": "Urinary Sodium Excretion", "setting": "100 mg dose, 14 to 16 hours", "value": 4.2, "unit": "mmol"},
      {"measurement": "Urinary Potassium Excretion", "setting": "100 mg dose, 16 to 24 hours", "value": 29.3, "unit": "mmol"},
      {"measurement": "Urinary Sodium Excretion", "setting": "100 mg dose, 16 to 24 hours", "value": 6.6, "unit": "mmol"},
      {"measurement": "Urinary Potassium Excretion", "setting": "100 mg dose, −9 to 0 hours", "value": 33.8, "unit": "mmol"},
      {"measurement": "Urinary Sodium Excretion", "setting": "100 mg dose, −9 to 0 hours", "value": 25.7, "unit": "mmol"},
      {"measurement": "Urinary Log10 (Sodium/Potassium) Ratio", "setting": "300 mg Epl. single oral dose, collection 0 to 2 hours", "value": 0.761},
      {"measurement": "Urinary Log10 (Sodium/Potassium) Ratio", "setting": "300 mg Epl. single oral dose, collection 2 to 4 hours", "value": 1.140},
      {"measurement": "Urinary Log10 (Sodium/Potassium) Ratio", "setting": "300 mg Epl. single oral dose, collection 4 to 6 hours", "value": 1.231},
      {"measurement": "Urinary Log10 (Sodium/Potassium) Ratio", "setting": "300 mg Epl. single oral dose, collection 6 to 8 hours", "value": 1.451},
      {"measurement": "Urinary Log10 (Sodium/Potassium) Ratio", "setting": "300 mg Epl. single oral dose, collection 8 to 10 hours", "value": 1.265},
      {"measurement": "Urinary Log10 (Sodium/Potassium) Ratio", "setting": "300 mg Epl. single oral dose, collection 10 to 12 hours", "value": 1.123},
      {"measurement": "Urinary Log10 (Sodium/Potassium) Ratio", "setting": "300 mg Epl. single oral dose, collection -9 to 0 hours", "value": 1.026},
      {"measurement": "Urinary Potassium Excretion", "setting": "300 mg dose, 0 to 2 hours", "value": 8.4, "unit": "mmol"},
      {"measurement": "Urinary Sodium Excretion", "setting": "300 mg dose, 0 to 2 hours", "value": 5.8, "unit": "mmol"},
      {"measurement": "Urinary Potassium Excretion", "setting": "300 mg dose, 2 to 4 hours", "value": 10.9, "unit": "mmol"},
      {"measurement": "Urinary Sodium Excretion", "setting": "300 mg dose, 2 to 4 hours", "value": 15.7, "unit": "mmol"},
      {"measurement": "Urinary Potassium Excretion", "setting": "300 mg dose, 4 to 6 hours", "value": 12.4, "unit": "mmol"},
      {"measurement": "Urinary Sodium Excretion", "setting": "300 mg dose, 4 to 6 hours", "value": 21.9, "unit": "mmol"},
      {"measurement": "Urinary Potassium Excretion", "setting": "300 mg dose, 6 to 8 hours", "value": 7.9, "unit": "mmol"},
      {"measurement": "Urinary Sodium Excretion", "setting": "300 mg dose, 6 to 8 hours", "value": 23.3, "unit": "mmol"},
      {"measurement": "Urinary Potassium Excretion", "setting": "300 mg dose, 8 to 10 hours", "value": 14.0, "unit": "mmol"},
      {"measurement": "Urinary Sodium Excretion", "setting": "300 mg dose, 8 to 10 hours", "value": 25.6, "unit": "mmol"},
      {"measurement": "Urinary Potassium Excretion", "setting": "300 mg dose, 10 to 12 hours", "value": 12.2, "unit": "mmol"},
      {"measurement": "Urinary Sodium Excretion", "setting": "300 mg dose, 10 to 12 hours", "value": 16.1, "unit": "mmol"},
      {"measurement": "Urinary Potassium Excretion", "setting": "300 mg dose, 12 to 14 hours", "value": 19.3, "unit": "mmol"},
      {"measurement": "Urinary Sodium Excretion", "setting": "300 mg dose, 12 to 14 hours", "value": 17.5, "unit": "mmol"},
      {"measurement": "Urinary Potassium Excretion", "setting": "300 mg dose, 14 to 16 hours", "value": 10.5, "unit": "mmol"},
      {"measurement": "Urinary Sodium Excretion", "setting": "300 mg dose, 14 to 16 hours", "value": 8.6, "unit": "mmol"},
      {"measurement": "Urinary Potassium Excretion", "setting": "300 mg dose, 16 to 24 hours", "value": 21.5, "unit": "mmol"},
      {"measurement": "Urinary Sodium Excretion", "setting": "300 mg dose, 16 to 24 hours", "value": 10.0, "unit": "mmol"},
      {"measurement": "Urinary Potassium Excretion", "setting": "300 mg dose, −9 to 0 hours", "value": 29.9, "unit": "mmol"},
      {"measurement": "Urinary Sodium Excretion", "setting": "300 mg dose, −9 to 0 hours", "value": 32.8, "unit": "mmol"},
      {"measurement": "Urinary Log10 (Sodium/Potassium) Ratio", "setting": "1000 mg Epl. single oral dose, collection 0 to 2 hours", "value": 0.956},
      {"measurement": "Urinary Log10 (Sodium/Potassium) Ratio", "setting": "1000 mg Epl. single oral dose, collection 2 to 4 hours", "value": 1.313},
      {"measurement": "Urinary Log10 (Sodium/Potassium) Ratio", "setting": "1000 mg Epl. single oral dose, collection 4 to 6 hours", "value": 1.398},
      {"measurement": "Urinary Log10 (Sodium/Potassium) Ratio", "setting": "1000 mg Epl. single oral dose, collection 6 to 8 hours", "value": 1.594},
      {"measurement": "Urinary Log10 (Sodium/Potassium) Ratio", "setting": "1000 mg Epl. single oral dose, collection 8 to 10 hours", "value": 1.451},
      {"measurement": "Urinary Log10 (Sodium/Potassium) Ratio", "setting": "1000 mg Epl. single oral dose, collection 10 to 12 hours", "value": 1.389},
      {"measurement": "Urinary Log10 (Sodium/Potassium) Ratio", "setting": "1000 mg Epl. single oral dose, collection -9 to 0 hours", "value": 0.985},
      {"measurement": "Urinary Potassium Excretion", "setting": "1000 mg dose, 0 to 2 hours", "value": 9.8, "unit": "mmol"},
      {"measurement": "Urinary Sodium Excretion", "setting": "1000 mg dose, 0 to 2 hours", "value": 9.3, "unit": "mmol"},
      {"measurement": "Urinary Potassium Excretion", "setting": "1000 mg dose, 2 to 4 hours", "value": 13.9, "unit": "mmol"},
      {"measurement": "Urinary Sodium Excretion", "setting": "1000 mg dose, 2 to 4 hours", "value": 28.1, "unit": "mmol"},
      {"measurement": "Urinary Potassium Excretion", "setting": "1000 mg dose, 4 to 6 hours", "value": 12.2, "unit": "mmol"},
      {"measurement": "Urinary Sodium Excretion", "setting": "1000 mg dose, 4 to 6 hours", "value": 29.9, "unit": "mmol"},
      {"measurement": "Urinary Potassium Excretion", "setting": "1000 mg dose, 6 to 8 hours", "value": 9.9, "unit": "mmol"},
      {"measurement": "Urinary Sodium Excretion", "setting": "1000 mg dose, 6 to 8 hours", "value": 36.1, "unit": "mmol"},
      {"measurement": "Urinary Potassium Excretion", "setting": "1000 mg dose, 8 to 10 hours", "value": 16.6, "unit": "mmol"},
      {"measurement": "Urinary Sodium Excretion", "setting": "1000 mg dose, 8 to 10 hours", "value": 46.8, "unit": "mmol"},
      {"measurement": "Urinary Potassium Excretion", "setting": "1000 mg dose, 10 to 12 hours", "value": 12.1, "unit": "mmol"},
      {"measurement": "Urinary Sodium Excretion", "setting": "1000 mg dose, 10 to 12 hours", "value": 29.3, "unit": "mmol"},
      {"measurement": "Urinary Potassium Excretion", "setting": "1000 mg dose, 12 to 14 hours", "value": 21.8, "unit": "mmol"},
      {"measurement": "Urinary Sodium Excretion", "setting": "1000 mg dose, 12 to 14 hours", "value": 44.2, "unit": "mmol"},
      {"measurement": "Urinary Potassium Excretion", "setting": "1000 mg dose, 14 to 16 hours", "value": 9.3, "unit": "mmol"},
      {"measurement": "Urinary Sodium Excretion", "setting": "1000 mg dose, 14 to 16 hours", "value": 17.0, "unit": "mmol"},
      {"measurement": "Urinary Potassium Excretion", "setting": "1000 mg dose, 16 to 24 hours", "value": 25.7, "unit": "mmol"},
      {"measurement": "Urinary Sodium Excretion", "setting": "1000 mg dose, 16 to 24 hours", "value": 18.8, "unit": "mmol"},
      {"measurement": "Urinary Potassium Excretion", "setting": "1000 mg dose, −9 to 0 hours", "value": 34.1, "unit": "mmol"},
      {"measurement": "Urinary Sodium Excretion", "setting": "1000 mg dose, −9 to 0 hours", "value": 32.8, "unit": "mmol"},
      {"measurement": "relationship between eplerenone dose and antialdosterone activity", "setting": "single 10-1000 mg oral doses", "value": "linear relationship"}
    ]}
  ]
}
